Data from US7145013B2, “3-thia-4-arylquinolin-2-one derivatives” (Bristol-Myers Squibb Company, priority 2003, dated 2006).

How the values were obtained:
[1] = test system: cloned mammalian (mSlo or hSlo) BK channel expressed in Xenopus oocytes; assay: Assay for BK channel openers: two-electrode voltage clamp, BK-mediated outward current in Xenopus oocytes; assay type: cell-based; details: percent increase over BK current in controls, voltage step to +140 mV, IBTX-sensitive current
Experimental: The ability of the compounds of the invention to open BK channels and increase whole-cell outward (K^+) BK-mediated currents was assessed under voltage-clamp conditions by determining their ability to increase cloned mammalian (mSlo or hSlo) BK-mediated outward current heterologously expressed in Xenopus oocytes [Butler, A., et al., Science 1993, 261, 221–224; Dworetzky, S. I., et al., Mol. Brain Res. 1994, 27, 189–193; Gribkoff, V. K., et al., Mol. Pharmacol. 1996, 50, 206–217]. The two BK constructs employed represent nearly structurally identical homologous proteins, and have proven to be pharmacologically indistinguishable in our tests. To isolate BK current from native (background, non-BK) current, the specific and potent BK channel-blocking toxin iberiotoxin (IBTX) [Galvez, A., et al., J. Biol. Chem. 1990, 265, 11083–11090] was employed at a supramaximal concentration, e.g., 50–100 nanomolar (“nM”). The relative contribution of BK channel-mediated current to total outward current was determined by subtraction of the current remaining in the presence of IBTX (non-BK current) from the current profiles obtained in all other experimental conditions (control, drug, and wash) [Gribkoff, V. K. et al., Mol. Pharmacol. 1996, 50, 206–217]. […] All compounds were tested in 5–10 oocytes and are reported at the indicated concentration of 20 micromolar (“μM”) (or as otherwise indicated); the effect of the selected compounds of the invention on BK current was expressed as the percent of control IBTX-sensitive current at a single transmembrane voltage (+140 mV) and is listed in Table 1. Recordings were accomplished using standard two-electrode voltage clamp techniques [Stuhmer, W., et al., Methods in Enzymology, 1992, 207, 319–339]; voltage-clamp protocols consisted of 500–750 milliseconds (“ms”) duration step depolarizations, from a holding potential of −60 mV, to a final voltage up to +140 mV in 20 mV steps. The experimental media (modified Barth's solution) consisted of millimolar (“mM”): NaCl (88), NaHCO3 (2.4), KCl (1.0), HEPES (10), MgSO4 (0.82), Ca(NO3)2 (0.33), CaCl2 (0.41); pH 7.5.

[2] = test system: rat small intestine (ileum) segments; assay: Rat small intestine (ileum) strip relaxation; details: integral of nifedipine-sensitive force, pre- vs 30 min post-compound
Excerpt: The ability of the compounds of the invention to relax rat small intestine tissue as a model for the treatment of irritable bowel syndrome is described as follows. Male rats (Harlan, Sprague Dawley, 250–350 g) were sacrificed by decapitation. A portion of small intestine (ileum) was removed and the attached connective tissues and intestinal contents removed. The ileum was cut into segments of ≦1 cm in length. The segments were mounted longitudinally between fixed hooks in organ baths containing warm (37° C.) physiological salt solution (composition in mM: NaCl 118.4, KCl 4.7, KH2PO4 1.2, MgSO4 1.2, CaCl2 1.8, Glucose 10.1, NaHCO3 25; gassed with 95% O2/5% CO2, pH 7.4). A stable tension of ˜1.5 g was maintained in the tissue segments during the equilibration period of 45 minutes. Changes in muscle tension were measured with isometric force transducers (Grass, FT-03C) and recorded using AcqKnowledge data acquisition system (AcqKnowledge for MP100WS, Biopac Systems Inc., Goleta, Calif.). Compound or vehicle was added in the baths for 30 minutes. […] The effects of compounds or vehicle on force was determined by measuring the integral of nifedipine-sensitive force (including resting tone and spontaneous contractions) pre- and 30 min post-compound (or vehicle) addition. Results are expressed as the percentage inhibition of force. […]

Row | Structure (SMILES) | % MaxiK opening ([1]; at 20 μM) | % Inhibition of force (RSI strips) [2] | % MaxiK opening ([1]; at 1 μM)
1 | Nc1ccc(Sc2c(-c3cc(Cl)ccc3O)c3cc(C(F)(F)F)ccc3[nH]c2=O)cc1 [Example 1, 3-[(4-Aminophenyl)thio]-4-(5-chloro-2-hydroxyphenyl)-6-(trifluoromethyl)-2(1H)-quinolinone] | 392% | 10% | –
2 | Cn1c(=O)c(Sc2ccc(N)cc2)c(-c2cc(Cl)ccc2O)c2cc(C(F)(F)F)ccc21 [Example 2, 3-[(4-Aminophenyl)thio]-4-(5-chloro-2-hydroxyphenyl)-1-methyl-6-(trifluoromethyl)-2(1H)-quinolinone] | 144% | – | –
3 | CCS(=O)(=O)Nc1ccc(Sc2c(-c3cc(Cl)ccc3O)c3cc(C(F)(F)F)ccc3[nH]c2=O)cc1 [Example 3, N-[4-[[4-(5-Chloro-2-hydroxyphenyl)-1,2-dihydro-2-oxo-6-(trifluoromethyl)-3-quinolinyl]thio]phenyl]ethanesulfonamide] | 296% | – | –
4 | COc1ccc(Cl)cc1-c1c(Sc2ccc(NS(=O)(=O)C(F)(F)F)cc2)c(=O)[nH]c2ccc(C(F)(F)F)cc12 [Example 4, N-[4-[[4-(5-chloro-2-methoxyphenyl)-1,2-dihydro-2-oxo-6-(trifluoromethyl)-3-quinolinyl]thio]phenyl]-1,1,1-trifluoromethanesulfonamide] | 235% | – | –
5 | CCCS(=O)(=O)Nc1ccc(Sc2c(-c3cc(Cl)ccc3O)c3cc(C(F)(F)F)ccc3[nH]c2=O)cc1 [Example 5, N-[4-[[4-(5-chloro-2-hydroxyphenyl)-1,2-dihydro-2-oxo-6-(trifluoromethyl)-3-quinolinyl]thio]phenyl]-1-propanesulfonamide] | 255% | – | –
6 | CN(C)S(=O)(=O)Nc1ccc(Sc2c(-c3cc(Cl)ccc3O)c3cc(C(F)(F)F)ccc3[nH]c2=O)cc1 [Example 6, N′-[4-[[4-(5-chloro-2-hydroxyphenyl)-1,2-dihydro-2-oxo-6-(trifluoromethyl)-3-quinolinyl]thio]phenyl]-N,N-dimethylsulfamide] | – | – | 222^⋄ %
7 | O=c1[nH]c2ccc(C(F)(F)F)cc2c(-c2cc(Cl)ccc2O)c1Sc1ccc(NS(=O)(=O)C(F)(F)F)cc1 [Example 7, N-[4-[[4-(5-chloro-2-hydroxyphenyl)-1,2-dihydro-2-oxo-6-(trifluoromethyl)-3-quinolinyl]thio]phenyl]-1,1,1-trifluoromethanesulfonamide] | 277% | 51% | –
8 | O=c1[nH]c2ccc(C(F)(F)F)cc2c(-c2cc(Cl)ccc2O)c1Sc1ccc(NS(=O)(=O)CC(F)(F)F)cc1 [Example 8, N-[4-[[4-(5-chloro-2-hydroxyphenyl)-1,2-dihydro-2-oxo-6-(trifluoromethyl)-3-quinolinyl]thio]phenyl]-2,2,2-trifluoroethanesulfonamide] | 170% | – | –
9 | CN(C)S(=O)(=O)Nc1ccc(Sc2c(-c3cc(Cl)ccc3O)c3cc(C(F)(F)F)ccc3n(C)c2=O)cc1 [Example 9, N′-[4-[[4-(5-chloro-2-hydroxyphenyl)-1,2-dihydro-1-methyl-2-oxo-6-(trifluoromethyl)-3-quinolinyl]thio]phenyl]-N,N-dimethylsulfamide] | – | – | 114^⋄ %
